Here are results for two substances from patent publication US20120128705A1, “C6ORF167 PEPTIDES AND VACCINES CONTAINING THE SAME” (OncoTherapy Science, Inc., priority 2009, published 2012).

Assay [1] relates to peptide-pulsed T2. Kind of assay: IFN-gamma ELISPOT assay on CTLs induced with peptide (HLA-A*0201). The following applies: CTLs from HLA-A*0201 positive donor, 3 rounds of stimulation, day 21; vs control wells without peptide. In kind it is cell-based, human. An excerpt:
Monocyte-derived dendritic cells (DCs) were used as antigen-presenting cells to induce cytotoxic T lymphocyte (CTL) responses against peptides presented on human leukocyte antigen (HLA). DCs were generated in vitro as described elsewhere (Nakahara S et al., Cancer Res 2003 Jul. 15, 63(14): 4112-8). Specifically, peripheral blood mononuclear cells (PBMCs) isolated from a normal volunteer (HLA-A*0201 positive) by Ficoll-Plaque (Pharmacia) solution were separated by adherence to a plastic tissue culture dish (Becton Dickinson) so as to enrich them as the monocyte fraction. The monocyte-enriched population was cultured in the presence of 1,000 U/ml of granulocyte-macrophage colony-stimulating factor (R&D System) and 1,000 U/ml of interleukin (IL)-4 (R&D System) in AIM-V Medium (Invitrogen) containing 2% heat-inactivated autologous serum (AS). After 7 days of culture, the cytokine-induced DCs were pulsed with 20 micro-g/ml of each of the synthesized peptides in the presence of 3 micro-g/ml of beta 2-microglobulin for 3 hrs at 37 degrees C. in AIM-V Medium. The generated cells appeared to express DC-associated molecules, such as CD80, CD83, CD86 and HLA class II, on their cell surfaces (data not shown). These peptide-pulsed DCs were then inactivated by X-irradiated (20 Gy) and mixed at a 1:20 ratio with autologous CD8+ T cells, obtained by positive selection with CD8 positive Isolation Kit (Dynal). These cultures were set up in 48-well plates (Corning); each well contained 1.5×10^4 peptide-pulsed DCs, 3×10^5 CD8+ T cells and 10 ng/ml of IL-7 (R&D System) in 0.5 ml of AIM-V/2% AS medium. Three days later, these cultures were supplemented with IL-2 (CHIRON) to a final concentration of 20 IU/ml. On days 7 and 14, the T cells were further stimulated with the autologous peptide-pulsed DCs. The DCs were prepared each time by the same way described above. CTL was tested against peptide-pulsed T2 cells after the 3rd round of peptide stimulation on day 21 (Tanaka H et al., Br J Cancer 2001 Jan. 5, 84(1): 94-9; Umano Y et al., Br J Cancer 2001 Apr. 20, 84(8): 1052-7; Uchida N et al., Clin Cancer Res 2004 Dec. 15, 10(24): 8577-86; Suda T et al., Cancer Sci 2006 May, 97(5): 411-9; Watanabe T et al., Cancer Sci 2005 August, 96(8): 498-506).
(§1) To examine specific CTL activity, interferon (IFN)-gamma enzyme-linked immunospot (ELISPOT) assay and IFN-gamma enzyme-linked immunosorbent assay (ELISA) were performed. Specifically, peptide-pulsed T2 (1×10^4/well) was prepared as stimulator cells. Cultured cells in 48 wells were used as responder cells. IFN-gamma ELISPOT assay and IFN-gamma ELISA assay were performed under manufacture procedure.

For assay [2], the system named is peptide-pulsed T2. Kind of assay: IFN-gamma ELISA assay of CTL lines (HLA-A*0201). The class given is cell-based, human. The note with it: target cells pulsed with corresponding peptide vs without peptide pulse. The procedure: CTLs were expanded in culture using the method similar to the one described by Riddell et al. (Walter E A et al., N Engl J Med 1995 Oct. 19, 333(16): 1038-44; Riddell S R et al., Nat Med 1996 February, 2(2): 216-23). A total of 5×10^4 CTLs were suspended in 25 ml of AIM-V/5% AS medium with 2 kinds of human B-lymphoblastoid cell lines, inactivated by Mitomycin C, in the presence of 40 ng/ml of anti-CD3 monoclonal antibody (Pharmingen). One day after initiating the cultures, 120 IU/ml of IL-2 were added to the cultures. The cultures were fed with fresh AIM-V/5% AS medium containing 30 IU/ml of IL-2 on days 5, 8 and 11 (Tanaka H et al., Br J Cancer 2001 Jan. 5, 84(1): 94-9; Umano Y et al., Br J Cancer 2001 Apr. 20, 84(8): 1052-7; Uchida N et al., Clin Cancer Res 2004 Dec. 15, 10(24): 8577-86; Suda T et al., Cancer Sci 2006 May, 97(5): 411-9; Watanabe T et al., Cancer Sci 2005 August, 96(8): 498-506).
as §1
In general terms: ELISA stands for enzyme-linked immunosorbent assay.

Assay [3] deals with peptide-pulsed T2. As to the kind of experiment: IFN-gamma ELISA assay of CTL clones (HLA-A*0201). The class given is cell-based, human. The note with it: clones by limiting dilution; target cells pulsed with peptide. The procedure: The dilutions were made to have 0.3, 1, and 3 CTLs/well in 96 round-bottomed micro titer plate (Nalge Nunc International). CTLs were cultured with 1×10^4 cells/well of 2 kinds of human B-lymphoblastoid cell lines, 30 ng/ml of anti-CD3 antibody, and 125 U/ml of IL-2 in a total of 150 micro-l/well of AIM-V Medium containing 5% AS. 50 micro-1/well of IL-2 were added to the medium 10 days later so to reach a final concentration of 125 U/ml IL-2. CTL activity was tested on the 14th day, and CTL clones were expanded using the same method as described above (Uchida N et al., Clin Cancer Res 2004 Dec. 15, 10(24): 8577-86; Suda T et al., Cancer Sci 2006 May, 97(5): 411-9; Watanabe T et al., Cancer Sci 2005 August, 96(8): 498-506).
as §1

For assay [4], the system named is COS7 cells transfected with C6orf167 and HLA-A*0201. As to the kind of experiment: Specific CTL activity against target cells exogenously expressing C6orf167 and HLA-A*0201. In kind it is cell-based, African green monkey. The following applies: for Specific CTL activity against control COS7 cells: COS7 transfected with either full length C6orf167 or HLA-A*0201 alone; for Specific CTL activity against COS7 cells expressing both C6orf167 and HLA-A*0201: CTL line (SEQ ID NO: 79) or CTL clone (SEQ ID NO: 114) as effector cells. An excerpt: The cDNA encoding an open reading frame of target genes or HLA-A*0201 was amplified by PCR. The PCR-amplified product was cloned into pCAGGS vector and pIRES vector (Clontech Laboratories, Inc., Cat. No. 631605). The plasmids were transfected into COS7, which is the target genes and HLA-A*0201-null cell line, using lipofectamine 2000 (Invitrogen) according to the manufacturer's recommended procedures. After 2 days from transfection, the transfected cells were harvested with versene (Invitrogen) and used as the target cells (5×10^4 cells/well) for CTL activity assay.
The established CTL lines and clones raised against each peptide were examined for the ability to recognize target cells that endogenously express C6orf167 and HLA-A*0201 molecule. Specific CTL activity against COS7 cells which transfected with both the full length of C6orf167 and HLA-A*0201 gene (a specific model for the target cells that exogenously express C6orf167 and HLA-A*0201 gene) was tested by using the CTL lines and clones raised by corresponding peptide as the effector cells. COS7 cells transfected with either full length of C6orf167 or HLA-A*0201 were prepared as the controls.

Ends that are not written are not given here.

Regarding TLLCDLISL [SEQ ID NO: 79], the “Peptide specific CTL activity: IFN-gamma production by ELISPOT” value in the assay on peptide-pulsed T2 [1] was “potent IFN-gamma production”. Further, the “IFN-gamma production of CTL lines by ELISA” value in the assay with peptide-pulsed T2 [2] is listed as “potent IFN-gamma production”. Further, the “IFN-gamma production of CTL clones by ELISA” value with peptide-pulsed T2 [3] is listed as “Potent IFN-gamma productions”. For the same substance, in assay [4], the “Specific CTL activity against control COS7 cells” value is recorded as “no significant specific CTL activity”; the “Specific CTL activity against COS7 cells expressing both C6orf167 and HLA-A*0201” value is recorded as “potent CTL activity”.
“TLLSiYIDGV (TLLSIYIDGV; not fully specified; printed as TLLSiYIDGV) [SEQ ID NO: 114]”: the “Peptide specific CTL activity: IFN-gamma production by ELISPOT” value in the assay on peptide-pulsed T2 [1] is “potent IFN-gamma production”. In addition, the “IFN-gamma production of CTL lines by ELISA” value with peptide-pulsed T2 [2] is given as “potent IFN-gamma production”. In addition, in the assay with peptide-pulsed T2 [3], the “IFN-gamma production of CTL clones by ELISA” value is “Potent IFN-gamma productions”. In addition, in assay [4], the “Specific CTL activity against control COS7 cells” value was “no significant specific CTL activity”; the “Specific CTL activity against COS7 cells expressing both C6orf167 and HLA-A*0201” value is reported as “potent CTL activity”.
